Source: patent publication US20170112760A1, “CELL DELIVERY SYSTEM AND METHOD” (The Queen's University of Belfast, priority 2014, published 2017)
Like-named read-outs stand apart in the source and are kept apart here. Ends that are not written are not given here.

What was measured:
[1] = tested on: PC-3 prostate cancer cell xenograft; assay: PC-3 xenograft model, intratumoural RALA/alendronate; format: in vivo, BALB-C SCID mice; conditions: thrice weekly
[2] = tested on: PC-3 prostate cancer cells; assay: Cell proliferation assay (manual cell counts), bisphosphonates and RALA/BP nanoparticles; conditions: for maximum cell kill: FIG. 51
Protocol: FIG. 51: Cell viability was evaluated by manual counting of the viable adherent cells using a haemocytometer. PC-3 prostate cancer cells were seeded in a 96-well flat-bottom tissue culture plate at a density of 1×10^4 cells per well and incubated in complete culture medium for 24 h. Two hours prior to transfection the cells were conditioned in OptiMEM serum-free medium and subsequently treated with solutions of BP to achieve a final exposure concentration of 5 μM to 1 mM. RALA/BP nanoparticles were prepared using a mass ratio of 10:1 such that the final concentration of BP per well was in the range 5 μM to 75 μM. Cells were incubated at 37° C. with 5% CO2 for 6 h before medium was replaced with completed culture medium and left to incubate for 72 h. Following incubation the cells were trypsinised and counted. Cell viability was expressed as a percentage of the untreated control where the untreated control is considered to be 100% viable. Dose-response curves were obtained for free BP and RALA/BP allowing determination of EC50 values for each. EC50 values refer to the concentration that induces a response halfway between the baseline and the maximum plateau obtained.
Cell viability was evaluated by manual counting of the viable adherent cells using a haemocytometer as described in. PC-3 prostate cancer cells were seeded in a 96-well flat-bottom tissue culture plate at a density of 1×10^4 cells per well and incubated in complete culture medium for 24 h. Two hours prior to transfection the cells were conditioned in OptiMEM serum-free medium (Invitrogen, UK) optimised for transfection. Cells were treated with solutions of BP to achieve a final exposure concentration of 5 μM to 1 mM. RALA/BP nanoparticles were prepared using a mass ratio of 10:1 such that the final concentration of BP per well was in the range 5 μM to 75 μM. Cells were incubated at 37° C. with 5% CO2 for 6 h before medium was replaced with completed culture medium and left to incubate for 72 h. Following incubation the cells were trypsinised and counted. Cell viability was expressed as a percentage of the untreated control where the untreated control is considered to be 100% viable. Dose-response curves were obtained for free BP and RALA/BP allowing determination of EC50 values for each. EC50 values refer to the concentration that induces a response halfway between the baseline and the maximum plateau obtained (FIG. 46, 51).

[3] = Nanoparticle size and charge analysis (DLS, zeta potential, Malvern Zetasizer); format: physicochemical; conditions: peptide/DNA nanoparticles, N:P10
Protocol: In order to obtain particle size and charge distributions the mean hydrodynamic particle size measurements RALA complexes were performed using Dynamic Light Scattering (DLS). Dynamic Light Scattering is based upon the principle that when particles are illuminated with a laser, due to Brownian motion there will be scattering of the light. The intensity of the scattered light fluctuates as a result of this Brownian motion caused by bombardment of the particles by solvent molecules. A correlation curve reflecting the decay rate is generated based on fluctuations of the scattered light where a slower correlation decay rate represents a slower moving particle. Based on the Stokes-Einstein equation larger particles move more slowly and, thus, the correlation function can be used to determine the size distribution of the particles. dynamic light scattering (DLS) was used.
Surface charge measurements of the RALA nanoparticles were determined by Laser Doppler Velocimetry. The zeta potential of the particles was measured using disposable foltable zeta cuvettes. Zeta cuvettes for the measurement of zeta potential were first washed with 70% ethanol, followed by two rinses with double distilled H2O prior to loading the sample. Enough diluted sample used for size measurement was used for determination of zeta potential.
The nanoparticles were made up at an appropriate range of N:P ratios with at least using 2 μg of DNA in each sample. Nanoparticles were analysed using either and analysis was completed on either the Zetasizer-HS3000 (Malvern Instruments) or the Zetasizer-Nano instrument with DTS software (Malvern Instruments, UK). Zetasizer-Nano (Malvern Instruments) (FIGS. 3, 9, 17-21, 41, 48 & 55).

[4] = tested on: ZR-75-1 cells; assay: Transfection with peptide/pEGFP-N1 nanoparticles, GFP expression by flow cytometry; format: cell-based; conditions: for Transfection Efficiency in ZR-75-1 Cells: peptide/DNA nanoparticles, N:P10
Protocol: In order to test the RALA in vitro, small scale transfections were performed carried out. 5×10^4 cells were seeded onto each well of a 96 well plate and the cells incubated under with complete medium standard conditions for 48 hours. The medium was subsequently removed from the plates and 100 μl of transfection medium (Optimem Invitrogen, UK) was added to each well. Cells were incubated for 2 hours at 37° C. and 5% CO2 standard conditions. In the meanwhile complexes were made up using 1 μg of plasmid DNA with the RALA vector and added to the cells when the two hours had passed. 100 μl of the each N:P ratio were added to each well of the cells. Cells were then incubated for a further 4 hours under standard conditions and the medium with RPMI-1640 supplemented with +10% FCS. (FIG. 4, 31(+Chloroquine), 32 (+Bafilomycin), 33 (+KALA NPs), 34 (+Lipofectamine), 35).
ZR-75-1 & PC-3 cells that were transfected with RALA/pEGFP-N1 complexes were trypsinised and washed twice with 2% formaldehyde in phosphate buffered saline. The expression of green fluorescent protein was measured by flow cytometry using FACS calibur system (BD Bioscience, UK). The data was analysed using the Flo-Jo software program and fluorescent intensity is reported at 4% gating. (FIG. 7b, 11, 31, 32, 33, 34, 35, 57 (+RAT/pEGFP-N1)).

[5] = Immune response on repeated intravenous administration (ELISAs, Greiss test); format: in vivo, C57/BL6 mice; conditions: first week
Protocol: FIG. 8: Immune response of C57BL/6 mice injected with PBS only, PEI only, RALA only, DNA only, PEI/DNA or RALA/DNA nanoparticles. For each injection the equivalent to N:P 10 with 10 μg of DNA was injected. Mice received one injection per week for three weeks. 48 h after each injection three mice were sacrificed and the serum was extracted for analysis. a) IgG, b) IgM, c) IL-1β, d) IL-6 and e) Greiss test for total nitrites.
For the harvesting of blood and intraperitoneal macrophages, cervical dislocation was the preferred method of euthanasia. Cardiac puncture was performed using a 21 G gauge needle (BD Biosciences, UK). The needle was placed horizontally slightly to the left side of the sternum to go up through the diaphragm. The needle was then withdrawn very slowly until 500 μl of blood was collected and placed in an eppendorf. The eppendorf was then stored at room temperature with an open lid to facilitate coagulation. After 30 min the eppendorfs were centrifuged at 2000 rpm for 10 min. The supernatant containing the serum was carefully decanted and placed into a clean eppendorf and stored at −20° C. until further use. When harvesting intraperitoneal macrophages an incision was made and the peritoneal cavity was flushed out with 30% sucrose (Sigma, UK) solution. The macrophages were stored at 4° C. until they could be cultured (FIG. 8). […]

For `NCCCC(O)(P(=O)(O)O)P(=O)(O)O` [alendronate], the “effect on tumour growth vs untreated control” value [1] was “high statistical significance when compared to the untreated control”, the EC50 ([2]; FIG. 16: 10 μM to 250 μM, six hours, 72 hours recovery) was 97.9 µM and the EC50 ([2]; FIG. 51: 6 h treatment, 72 h incubation, mass ratio 10:1) was 100 µM.
For `CC(O)(P(=O)(O)O)P(=O)(O)O` [etidronate], the “percentage cell survival with increasing BP” value ([2]; FIG. 51d) was “no reduction in percentage cell survival with increasing BP”.
For `O=P(O)(O)C(O)(Cc1cccnc1)P(=O)(O)O` [risedronate], the EC50 [2] was 78 µM and the maximum cell kill [2] was 20%.
`O=P(O)(O)C(O)(Cn1ccnc1)P(=O)(O)O` [zoledronate] showed an EC50 [2] of 27.6 µM and a maximum cell kill [2] of 82%.
In the case of “REARLARALARALARELARALARALRAREA (amphipathic peptide sequence (Table 2)) [Peptide 6, H Replaced with E and W replaced with R and C replaced with R]”, the “Best Size (nm)” value [3] is reported as 308 nm, the “Charge (mV)” value [3] is reported as 6 mV and the “Transfection Efficiency in ZR-75-1 Cells” value [4] is reported as 43%.
In the case of “REARLARALARALARLARALARALRACEA (amphipathic peptide sequence (Table 2)) [Peptide 4, H Removed and W replaced with R]”, the “Charge (mV)” value [3] is reported as 12 mV and the “Transfection Efficiency in ZR-75-1 Cells” value [4] is reported as 50%.
With “REARLARALARALARLARALARALRAREA (amphipathic peptide sequence (Table 2)) [Peptide 5, H Removed and W replaced with R and C replaced with R]” the “Charge (mV)” value [3] was 13 mV and the “Transfection Efficiency in ZR-75-1 Cells” value [4] was 46%.
In the case of “WEARLARALARALARELARALARALRACEA (amphipathic peptide sequence (Table 2)) [Peptide 3, H replaced with glutamic acid (E)]”, the “Charge (mV)” value [3] is reported as 24 mV and the “Transfection Efficiency in ZR-75-1 Cells” value [4] is reported as 41%.
For WEARLARALARALARHLARALARALRACEA [RALA], the TNFα response [5] was “significantly lower initial response of TNFα than the PEI only treated animals”.
With “WEARLARALARALARHLRACEA (22mer protein sequence (Table 2)) [Peptide 22mer, comparative peptide, reference compound]” the “ability to condense DNA into nanoparticles and transfect cells” value [4] was “unable to condense DNA into nanoparticles and transfect cells”.
For “WEARLARALARALARLARALARALRACEA (amphipathic peptide sequence (Table 2)) [Peptide 2, H removed]”, the “Charge (mV)” value [3] was 22 mV and the “Transfection Efficiency in ZR-75-1 Cells” value [4] was 55%.
